Source: patent publication US10357493B2, “Metalloenzyme inhibitor compounds” (Selenity Therapeutics (Bermuda), Ltd., priority 2017, dated 2019)

What was measured:
HDAC1 = HDAC1 (Homo sapiens (Human), UniProt Q13547); assay: HDAC1 enzymatic assay; format: biochemical; settings: read-out: Human HDAC1 IC50
Protocol: (§1) All enzymatic reactions were conducted in duplicate at room temperature for 17 hours in a 50 μl mixture containing HDAC assay buffer (50 mM Tris-HCl, pH 7.4, 137 mM NaCl, 2.7 mM KCl, 0.05% Tween 20, 5 μg BSA), an HDAC substrate, an HDAC enzyme, and a test compound. Compound dilution was prepared ten-fold higher than the final concentration of the compounds with 10% DMSO in HDAC assay buffer and 5 μl of the dilution was added to a 50 μl reaction so that the final concentration of DMSO is 1% in all of reactions. After enzymatic reactions, 50 μl of HDAC Developer was added to each well and the plate was incubated at room temperature for an additional 20 minutes. Fluorescence intensity was measured at an excitation of 360 nm and an emission of 460 nm using a Tecan Infinite M1000 or Biotek Synergy microplate reader.
(§2) The fluorescent intensity data were analyzed using the computer software, Graphpad Prism. In the absence of the compound, the fluorescent intensity (Ft) in each data set was defined as 100% activity. In the absence of HDAC, the fluorescent intensity (Fb) in each data set was defined as 0% activity. The percent activity in the presence of each compound was calculated according to the following equation: % activity=(F−Fb)/(Ft−Fb), where F=the fluorescent intensity in the presence of the compound.
(§3) The values of % activity versus a series of compound concentrations were then plotted using non-linear regression analysis of Sigmoidal dose-response curve generated with the equation Y=B+(T−B)/1+10((Log EC50−X)×Hill Slope), where Y=percent activity, B=minimum percent activity, T=maximum percent activity, X=logarithm of compound and Hill Slope=slope factor or Hill coefficient. The IC50 value was determined by the concentration causing a half-maximal percent activity.
(§4) HDAC1 enzymatic assays contained 0.5 ng HDAC1 and 10 uM of HDAC substrate. HDAC2 enzymatic assays contained 0.5 ng HDAC2 and 10 uM of HDAC substrate. HDAC3 enzymatic assays contained 0.4 ng HDAC3/NCOR2 and 10 uM of HDAC substrate. HDAC4 enzymatic assays contained 0.02 ng HDAC4 and 2 uM of HDAC substrate. HDAC5 enzymatic assays contained 0.5 ng HDAC5 and 2 uM of HDAC substrate. HDAC6 enzymatic assays contained 2 ng HDAC6 and 10 uM of HDAC substrate. HDAC7 enzymatic assays contained 0.05 ng HDAC7 and 2 uM of HDAC substrate. HDAC8 enzymatic assays contained 5 ng HDAC8 and 2 uM of HDAC substrate. HDAC9 enzymatic assays contained 1 ng HDAC9 and 2 uM of HDAC substrate. HDAC10 enzymatic assays contained 75 ng HDAC10 and 10 uM of HDAC substrate. HDAC11 enzymatic assays contained 5 ng HDAC11 and 2 uM of HDAC substrate.

HDAC6 = HDAC6 (Homo sapiens (Human), UniProt Q9UBN7); assay: HDAC6 enzymatic assay; format: biochemical; settings: read-out: Human HDAC6 IC50
Protocol: as §1, §2, §3, §4

HDAC6, sequence (Q9UBN7 whole entry): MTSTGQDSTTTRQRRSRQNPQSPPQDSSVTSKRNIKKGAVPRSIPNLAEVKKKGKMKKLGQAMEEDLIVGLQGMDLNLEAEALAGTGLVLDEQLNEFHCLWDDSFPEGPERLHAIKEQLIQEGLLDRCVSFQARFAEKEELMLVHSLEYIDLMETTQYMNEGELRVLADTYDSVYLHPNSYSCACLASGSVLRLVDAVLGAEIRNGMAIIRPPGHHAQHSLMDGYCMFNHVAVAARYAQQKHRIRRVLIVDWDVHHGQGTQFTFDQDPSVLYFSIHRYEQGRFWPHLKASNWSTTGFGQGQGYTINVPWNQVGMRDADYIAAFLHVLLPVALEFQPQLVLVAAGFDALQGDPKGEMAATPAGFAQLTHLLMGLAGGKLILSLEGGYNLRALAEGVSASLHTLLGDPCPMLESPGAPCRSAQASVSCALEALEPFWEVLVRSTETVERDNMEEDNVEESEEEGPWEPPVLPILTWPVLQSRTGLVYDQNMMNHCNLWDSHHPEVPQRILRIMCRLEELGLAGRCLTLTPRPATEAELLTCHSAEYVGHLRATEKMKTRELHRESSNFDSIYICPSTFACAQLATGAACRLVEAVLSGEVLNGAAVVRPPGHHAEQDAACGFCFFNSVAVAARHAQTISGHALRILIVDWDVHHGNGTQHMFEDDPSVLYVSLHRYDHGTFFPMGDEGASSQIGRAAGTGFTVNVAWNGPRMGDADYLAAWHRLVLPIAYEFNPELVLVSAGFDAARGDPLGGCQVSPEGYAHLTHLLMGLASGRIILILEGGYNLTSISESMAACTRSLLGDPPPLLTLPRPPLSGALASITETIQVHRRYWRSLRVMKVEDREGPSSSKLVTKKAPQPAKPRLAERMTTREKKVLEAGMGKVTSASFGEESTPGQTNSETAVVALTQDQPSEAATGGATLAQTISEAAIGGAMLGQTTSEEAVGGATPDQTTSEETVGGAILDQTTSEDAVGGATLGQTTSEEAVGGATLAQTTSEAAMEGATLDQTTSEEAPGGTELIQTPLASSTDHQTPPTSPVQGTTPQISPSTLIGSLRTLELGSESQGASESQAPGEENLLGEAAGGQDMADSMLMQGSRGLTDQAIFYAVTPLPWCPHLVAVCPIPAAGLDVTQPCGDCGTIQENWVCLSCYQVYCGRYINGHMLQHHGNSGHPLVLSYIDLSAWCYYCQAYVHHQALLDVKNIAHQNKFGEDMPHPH
HDAC1, sequence (Q13547 whole entry): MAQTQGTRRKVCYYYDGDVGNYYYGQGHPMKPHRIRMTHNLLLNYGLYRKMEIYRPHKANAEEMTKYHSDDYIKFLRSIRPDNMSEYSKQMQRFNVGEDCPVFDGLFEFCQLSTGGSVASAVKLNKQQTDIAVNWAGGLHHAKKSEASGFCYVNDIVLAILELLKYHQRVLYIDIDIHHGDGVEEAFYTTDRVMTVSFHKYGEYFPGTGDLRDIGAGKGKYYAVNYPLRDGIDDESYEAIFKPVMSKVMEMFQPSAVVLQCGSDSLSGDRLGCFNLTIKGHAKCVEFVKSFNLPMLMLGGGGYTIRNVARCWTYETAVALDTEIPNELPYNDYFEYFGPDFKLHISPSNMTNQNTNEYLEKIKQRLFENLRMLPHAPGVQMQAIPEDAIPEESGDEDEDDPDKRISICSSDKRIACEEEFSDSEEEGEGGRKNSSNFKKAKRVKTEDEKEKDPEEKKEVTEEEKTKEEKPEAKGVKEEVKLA

IC50 (HDAC1)	IC50 (HDAC6)	SMILES
> 30000 nM	200 nM	CCS(=O)(=O)N(CC(Nc1ncc(-c2nnc(C(F)F)o2)cn1)c1ccc(OC(F)F)cc1F)CC(F)(F)F (stereo not drawn) [149(+), N-(2-(4-(difluoromethoxy)-2-fluorophenyl)-2-((5-(5-(difluoromethyl)-1,3,4-oxadiazol-2-yl)pyrimidin-2-yl)amino)ethyl)-N-(2,2,2-trifluoroethyl)ethanesulfonamide]
> 30000 nM	62 nM	FC(F)c1nnc(-c2cnc(NC3(c4cccc(C(F)(F)F)c4Cl)CC3)nc2)o1 [Example 85, N-(1-(2-chloro-3-(trifluoromethyl)phenyl)cyclopropyl)-5-(5-(difluoromethyl)-1,3,4-oxadiazol-2-yl)pyrimidin-2-amine]
> 30000 nM	130 nM	CCS(=O)(=O)N(CC(Nc1ncc(-c2nnc(C(F)F)o2)cn1)c1ccc(F)cc1F)CC(F)(F)F (stereo not drawn) [141(+), N-(2-((5-(5-(difluoromethyl)-1,3,4-oxadiazol-2-yl)pyrimidin-2-yl)amino)-2-(2,4-difluorophenyl)ethyl)-N-(2,2,2-trifluoroethyl)ethanesulfonamide]
> 30000 nM	220 nM	Fc1ccc(C(COC2CC2)Nc2ncc(-c3nnc(C(F)F)o3)cn2)c(F)c1 (single isomer, unassigned) [Example 134A, N-(2-cyclopropoxy-1-(2,4-difluorophenyl)ethyl)-5-(5-(difluoromethyl)-1,3,4-oxadiazol-2-yl)pyrimidin-2-amine]
> 30000 nM	27 nM	FC(F)c1nnc(-c2cnc(NC3(c4ccc(Br)cc4)CC3)nc2)o1 [Example 47, N-(1-(4-bromophenyl)cyclopropyl)-5-(5-(difluoromethyl)-1,3,4-oxadiazol-2-yl)pyrimidin-2-amine]
> 30000 nM	35 nM	Cc1ccc(Cl)c(C2(Nc3ncc(-c4nnc(C(F)F)o4)cn3)CC2)c1 [Example 90, N-(1-(2-chloro-5-methylphenyl)cyclopropyl)-5-(5-(difluoromethyl)-1,3,4-oxadiazol-2-yl)pyrimidin-2-amine]
> 30000 nM	58 nM	CS(=O)(=O)Nc1ccccc1CC(Nc1ncc(-c2nnc(C(F)F)o2)cn1)c1ccc(F)cc1 (stereo not drawn) [Example 131, N-(2-(2-((5-(5-(difluoromethyl)-1,3,4-oxadiazol-2-yl)pyrimidin-2-yl)amino)-2-(4-fluorophenyl)ethyl)phenyl)methanesulfonamide]
> 30000 nM	50 nM	O=C(NCC(Nc1ncc(-c2nnc(C(F)F)o2)cn1)c1ccc(F)cc1)C(F)(F)F (stereo not drawn) [Example 114, N-(2-((5-(5-(difluoromethyl)-1,3,4-oxadiazol-2-yl)pyrimidin-2-yl)amino)-2-(4-fluorophenyl)ethyl)-2,2,2-trifluoroacetamide]
> 30000 nM	1500 nM	Fc1ccc(C(Cn2cc(C(F)(F)F)cn2)Nc2ncc(-c3nnc(C(F)F)o3)cn2)cc1 (single isomer, unassigned) [176(−), 5-(5-(difluoromethyl)-1,3,4-oxadiazol-2-yl)-N-(1-(4-fluorophenyl)-2-(4-(trifluoromethyl)-1H-pyrazol-1-yl)ethyl)pyrimidin-2-amine]
> 30000 nM	58 nM	Fc1ccc(-c2cccc(C3(Nc4ncc(-c5nnc(C(F)F)o5)cn4)CC3)c2)cc1 [Example 18, 5-(5-(difluoromethyl)-1,3,4-oxadiazol-2-yl)-N-(1-(4′-fluoro-[1,1′-biphenyl]-3-yl)cyclopropyl)pyrimidin-2-amine]
> 30000 nM	300 nM	Fc1ccc(C(COCC(F)(F)F)Nc2ncc(-c3nnc(C(F)F)o3)cn2)cc1 (single isomer, unassigned) [162(−), 5-(5-(difluoromethyl)-1,3,4-oxadiazol-2-yl)-N-(1-(4-fluorophenyl)-2-(2,2,2-trifluoroethoxy)ethyl)pyrimidin-2-amine]
> 30000 nM	410 nM	Fc1ccc(C(COCC(F)(F)F)Nc2ncc(-c3nnc(C(F)F)o3)cn2)c(F)c1 (single isomer, unassigned) [163(−), 5-(5-(difluoromethyl)-1,3,4-oxadiazol-2-yl)-N-(1-(2,4-difluorophenyl)-2-(2,2,2-trifluoroethoxy)ethyl)pyrimidin-2-amine]
> 30000 nM	490 nM	CS(=O)(=O)NCC(Nc1ncc(-c2nnc(C(F)F)o2)cn1)c1ccc(Cl)cc1 (single isomer, unassigned) [173(−), N-(2-(4-chlorophenyl)-2-((5-(5-(difluoromethyl)-1,3,4-oxadiazol-2-yl)pyrimidin-2-yl)amino)ethyl)methanesulfonamide]
> 30000 nM	1100 nM	CS(=O)(=O)NCC(Nc1ncc(-c2nnc(C(F)F)o2)cn1)C1CC1 (single isomer, unassigned) [123(+), N-(2-cyclopropyl-2-((5-(5-(difluoromethyl)-1,3,4-oxadiazol-2-yl)pyrimidin-2-yl)amino)ethyl)methanesulfonamide]
> 30000 nM	130 nM	Fc1ccc(C(COCC(F)(F)F)Nc2ncc(-c3nnc(C(F)F)o3)cn2)cc1 (single isomer, unassigned) [162(+), 5-(5-(difluoromethyl)-1,3,4-oxadiazol-2-yl)-N-(1-(4-fluorophenyl)-2-(2,2,2-trifluoroethoxy)ethyl)pyrimidin-2-amine]
> 30000 nM	14 nM	Fc1ccc(Cl)cc1C1(Nc2ncc(-c3nnc(C(F)F)o3)cn2)CC1 [Example 76, N-(1-(5-chloro-2-fluorophenyl)cyclopropyl)-5-(5-(difluoromethyl)-1,3,4-oxadiazol-2-yl)pyrimidin-2-amine]
> 30000 nM	50 nM	CCS(=O)(=O)NCC(Nc1ncc(-c2nnc(C(F)F)o2)cn1)c1ccc(OC(F)(F)F)cc1 (stereo not drawn) [155(+), N-(2-((5-(5-(difluoromethyl)-1,3,4-oxadiazol-2-yl)pyrimidin-2-yl)amino)-2-(4-(trifluoromethoxy)phenyl)ethyl)ethanesulfonamide]
> 30000 nM	> 1000 nM	C[C@H](Nc1ncc(-c2nnc(C(F)F)o2)cn1)c1ccc(F)cc1F [Example 99-S]
> 30000 nM	250 nM	COc1cccc(C2(Nc3ncc(-c4nnc(C(F)(F)F)o4)cn3)CC2)c1 [Example 41, N-(1-(3-methoxyphenyl)cyclopropyl)-5-(5-(trifluoromethyl)-1,3,4-oxadiazol-2-yl)pyrimidin-2-amine]
> 30000 nM	37 nM	O=S1(=O)CCCN1CC(Nc1ncc(-c2nnc(C(F)F)o2)cn1)c1ccc(F)cc1 (single isomer, unassigned; (+)) [120(+), (+)-2-(2-((5-(5-(difluoromethyl)-1,3,4-oxadiazol-2-yl)pyrimidin-2-yl)amino)-2-(4-fluorophenyl)ethyl)isothiazolidine 1,1-dioxide]
> 30000 nM	1500 nM	Fc1ccc(C(Cn2cnc(C(F)(F)F)c2)Nc2ncc(-c3nnc(C(F)F)o3)cn2)cc1 (single isomer, unassigned) [175(−), 5-(5-(difluoromethyl)-1,3,4-oxadiazol-2-yl)-N-(1-(4-fluorophenyl)-2-(4-(trifluoromethyl)-1H-imidazol-1-yl)ethyl)pyrimidin-2-amine]
> 30000 nM	> 1000 nM	N#Cc1ccc(C2(Nc3ncc(-c4nnc(C(F)F)o4)cn3)CC2)cn1 [Example 25, 5-(1-((5-(5-(difluoromethyl)-1,3,4-oxadiazol-2-yl)pyrimidin-2-yl)amino)cyclopropyl)picolinonitrile]
> 30000 nM	77 nM	Fc1cc(OCC(F)(F)F)ccc1C1(Nc2ncc(-c3nnc(C(F)F)o3)cn2)CC1 [Example 84, 5-(5-(difluoromethyl)-1,3,4-oxadiazol-2-yl)-N-(1-(2-fluoro-4-(2,2,2-trifluoroethoxy)phenyl)cyclopropyl)pyrimidin-2-amine]
> 30000 nM	53 nM	CN(CC(Nc1ncc(-c2nnc(C(F)F)o2)cn1)c1ccc(F)cc1F)S(=O)(=O)C1CC1 (stereo not drawn) [143(+), N-(2-((5-(5-(difluoromethyl)-1,3,4-oxadiazol-2-yl)pyrimidin-2-yl)amino)-2-(2,4-difluorophenyl)ethyl)-N-methylcyclopropanesulfonamide]
